For orientation: GI50 means the concentration giving 50% growth inhibition.

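96-well plates; 48 h exposure; 5 concentrations. Endpoints by linear interpolation between flanking doses. Not reached: highest tested concentration assigned. GI50 is the concentration that inhibits growth by half.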 Calls of active or inactive are those of the source. Rule as the data show it: active = GI50 up to about 1.1 µM and inactive = higher. Where only a bound is given, the exact number is not on record here.

Test systems include KM12; SW-620; SK-MEL-2; SN12C; NCI/ADR-RES; NCI-H460; CCRF-CEM; OVCAR-4; HCC 2998; NCI-H522; LOX IMVI; TK-10; M14; MCF7; SR; IGROV-1; A498; UO-31; SF-539; MOLT-4.
Common to all, as to assay: DTP human tumour cell line panel, 48 h

For `O=S(=O)(c1ccc2ccccc2c1)N1CCN(S(=O)(=O)c2ccc3ccccc3c2)CC1`, the GI50 in the test on KM12, with SW-620, in the test with SK-MEL-2, in the test on SN12C, in the test on NCI/ADR-RES and with NCI-H460 was > 100 µM (inactive) each time. Besides, the GI50 with CCRF-CEM, in the test on OVCAR-4, in the test with HCC 2998, with NCI-H522, in the test with LOX IMVI and with TK-10 was > 100 µM (inactive) throughout. Besides, the GI50 with M14, in the test on MCF7, in the test on SR, in the test on IGROV-1, in the test with A498 and in the test on UO-31 was > 100 µM (inactive) in each case.
Regarding `C=CCOC(=O)Cn1cc(C)c(=O)[nH]c1=O`, the GI50 with KM12, in the test with SW-620, in the test with SK-MEL-2, with SN12C, in the test with NCI/ADR-RES and in the test on NCI-H460 was > 100 µM (inactive) in each case. For the same compound, the GI50 in the test on CCRF-CEM, with OVCAR-4, with HCC 2998, with SF-539, with LOX IMVI and in the test on TK-10 was > 100 µM (inactive) each time. Further, the GI50 with M14, in the test on MCF7, in the test on SR, with MOLT-4, with IGROV-1 and in the test on A498 was > 100 µM (inactive) in each case. Further, the GI50 in the test with UO-31 is > 100 µM (inactive).
Take `Cc1ccc2c(c1C)C(=O)C1(Cc3cc4c(cc3C1=O)CCC4)C2` (configuration not stated): the GI50 with KM12, with SW-620, with SK-MEL-2, in the test on SN12C, with NCI/ADR-RES and with NCI-H460 was > 100 µM (inactive) each time. Further, the GI50 with CCRF-CEM was > 100 µM (inactive); in the test on OVCAR-4, > 100 µM (inactive); in the test with HCC 2998 it was > 100 µM (inactive); in the test with NCI-H522, > 100 µM (inactive); with SF-539, 0.726 µM (active); in the test on TK-10, > 100 µM (inactive). Also, the GI50 with M14, with MCF7, with SR, in the test with MOLT-4, with IGROV-1 and with A498 was > 100 µM (inactive) throughout. Besides, in the test on UO-31, the GI50 was > 100 µM (inactive).
Take `O=c1oc2c/c(=C\c3ccccc3)c(=O)c3cccc1c3-2`: the GI50 is 24.9 µM (inactive) in the test on KM12; 25.1 µM (inactive) in the test on SW-620; 47.6 µM (inactive) in the test on SN12C; 33.7 µM (inactive) in the test with NCI/ADR-RES; 74.5 µM (inactive) in the test with NCI-H460; > 100 µM (inactive) with HCC 2998. The GI50 in the test on NCI-H522 is 22.8 µM (inactive); with SF-539, 31.5 µM (inactive); in the test on LOX IMVI, 19.7 µM (inactive); with TK-10, > 100 µM (inactive); in the test on M14 it was 22.4 µM (inactive); with MCF7 it was > 10 µM (inactive). For the same compound, the GI50 was 28.8 µM (inactive) with SR, 23 µM (inactive) in the test with IGROV-1, > 100 µM (inactive) in the test with A498 and 30.1 µM (inactive) with UO-31.

The values are drawn from ChEMBL document CHEMBL1201862, “PubChem BioAssay data set” (2004).
